These results are taken from patent US20180085423A1, “METHODS FOR TREATING AND DIAGNOSING EATING DISORDERS” (THE TRUSTEES OF COLUMBIA UNIVERSITY IN THE CITY OF NEW YORK, priority 2015, published 2018).

“Also recorded” adds a separate entry of the source. Starred links: 1 amine or outer side, 2 acyl side, 3 side chain; linkers in the order of their positions; H or OH if unused. Positions of bridges follow the written chain, without caps; N, C: chain ends. Residues, ends and D or L forms follow the SMILES beside them. X1 = O=C(CC1(S[*:2])CCCCC1)[*:1]

Assay [1] has as its system wild-type C57BL6/J females. As to the kind of experiment: Block of the impact of central injection of AVP (3 ng i.c.v.) on food intake after an overnight fast. Type of assay: in vivo, mice. Conditions: fasted wild-type females; for reversal of AVP-induced hypophagia (1 hour food intake): peripheral injection, Compound 1 7 μg/kg, SR49059 2 mg/kg, AVP 3 ng i.c.v. As to the method:
First, it was confirmed that the antagonist compounds act as predicted by assessing their ability to block the impact of central injection of AVP (3 ng i.c.v.) on food intake after an overnight fast in wild-type C57BL6/J females.

The next assay deals with GED mice. The assay is described as follows: Food intake of GED mice during an aphagic episode after i.p. injection of an AVPR1A antagonist. Format: in vivo. Conditions: for food intake versus saline-injected GED mice, 1 hour after treatment: Compound 1 7 μg/kg, SR49059 2 mg/kg. As to the method: In the morning of the first day of an aphagic episode (≧18 hr of aphagia), GED mice were injected i.p. with 7 μg/kg Compound 1 (Sigma) vs. saline.
To determine the extent to which treatment with Compound 1 rescued the normal drive to re-feed after overnight fast, food intake in a group of saline-injected GED mice that were eating normally were also measured, and were then subjected to an investigator-initiated overnight fast (a condition when AVPR1A should not be elevated in the amygdala) (triangle data points, FIG. 11).
Next, the possibility that AVPR1A antagonists could be used to restore feeding behavior in GED mice during an acute aphagic episode was explored. It was studied whether peripheral injection of Compound 1 and SR49059 can reverse anorexigenic behavior in the GED mouse model. To this end, the impact of i.p. injections of […] of Compound 1 vs. 2 mg/kg SR49059 vs. saline in the morning of the first day of an aphagic episode (≧18 h of aphagia) was assessed.
Mice were given ad libitum access to food immediately after the injection and food intake was measured after 1 hour and 2 hours.

In assay [2] the test system is Avpr1a−/− mutants (AVPR1a KO). The assay is described as follows: Intra-amygdala AVP injection, food intake in Avpr1a-/- mutants. Format: in vivo, mice. Conditions: 0.03 ng AVP intra-amygdala vs. saline. The procedure:
(§1) In this example, it was tested whether the anorexic effect of AVP can also be achieved by intra-amygdala injections. The amygdala is a long structure extending from −0.58 mm to −2.5 mm to Bregma. To select the stereotaxic coordinates for the injections, qPCR for Avpr1a on serial 200 μm vibratome sections was performed across the entire amygdala. A peak of expression at −1.4 mm was observed. Unilateral injections of 0.03 ng AVP (vs. saline, in a random crossover design) were made into the amygdala of wild-type mice at this position (dorso-ventral −4.5 mm, lateral −2.4 mm (right side) and rostro-caudal −1.4 mm) (see FIG. 13A).
Since AVP can also bind to AVPR1b and OxtR, the intra-amygdala injections were repeated in Avpr1a−/− mutants (AVPR1a KO) as described above for the wild-type mice.

Assay [3] relates to wild-type mice. The assay is described as follows: Intra-amygdala AVP injection, food intake in wild-type mice. Type of assay: in vivo. To be noted: 0.03 ng AVP unilateral intra-amygdala vs. saline. As to the method: as §1
In assay [4] the test system is wild-type mice. The assay is described as follows: Food intake after an overnight fast in wild-type mice injected with Compound 1. To be noted: wild-type mice at 7-8 weeks of age, versus saline. Type of assay: in vivo. As to the method:
It was also investigated whether Compound 1 acts as a generic appetite stimulant. To test this idea, the impact of injecting Compound 1 after an overnight fast in wild-type mice at 7-8 weeks of age (FIG. 11, diamond data points) was tested.

Where [5] appears, read: GED mice during aphagic episode, i.p., 1 hour.

For the compound `COc1ccc(S(=O)(=O)N2c3ccc(Cl)cc3[C@](O)(c3ccccc3Cl)[C@@H]2C(=O)N2CCC[C@H]2C(N)=O)cc1OC` [SR49059], the “reversal of AVP-induced hypophagia (1 hour food intake)” value in assay [1] (2 mg/kg) is recorded as “did not significantly reverse AVP-induced hypophagia; also recorded: did not have that effect”. The “food intake versus saline-injected GED mice, 1 hour after treatment” value in the assay on GED mice (setting [5]) was “did not enhance food intake”.
For the compound `NC(=O)CC[C@@H]1NC(=O)[C@H](Cc2ccccc2)NC(=O)[C@H](Cc2ccc(O)cc2)NC(=O)[C@@H](N)CSSC[C@@H](C(=O)N2CCC[C@H]2C(=O)N[C@@H](CCCN=C(N)N)C(=O)NCC(N)=O)NC(=O)[C@H](CC(N)=O)NC1=O` [AVP, arginine vasopressin], the “effect of intra-amygdala AVP on food intake, Avpr1a−/− mutants” value in assay [2] is “did not affect food intake; also recorded: anorexic effect is not observed”. In assay [1] (3 ng AVP i.c.v. vs. saline), the “effect of central injection of AVP on food intake” value was “hypophagia”. Moreover, the “effect of intra-amygdala AVP on food intake, wild-type mice” value in the assay on wild-type mice [3] is “food intake was reduced”.
As to `COc1ccc(CC2NC(=O)CC3(CCCCC3)SSCC(C(=O)N3CCCC3C(=O)NC(CCCN=C(N)N)C(=O)NCC(N)=O)NC(=O)C(CC(N)=O)NC(=O)C(CCC(N)=O)NC(=O)C(Cc3ccccc3)NC2=O)cc1` (stereo not drawn) [Compound 1, 1-(beta-mercapto-betabeta-cycopentamethylenepropionic acid)-2-(O-methyl-Tyr)-argipressin] (Y(Me)FQNCPRG-NH2; linker N-5 via X1; configuration not given here), the “reversal of AVP-induced hypophagia (1 hour food intake)” value in assay [1] is reported as “can restore 1 hour food intake; also recorded: able to reverse hypophagia”. For the same compound, the “food intake in wild-type animals after an overnight fast” value with wild-type mice [4] is “did not impact food intake”. Further, the “rescue of food intake at 1 hour relative to normally eating GED mice after overnight fast” value with GED mice (7 μg/kg dose, 1 hour) was “partial rescue”. Moreover, the “rescue of food intake at 2 hours relative to normally eating GED mice after overnight fast” value in the assay on GED mice (7 μg/kg dose, 2 hour) is listed as “nearly normalized”. Moreover, in the assay on GED mice (GED mice during aphagic episode, i.p., 2 hours), the “food intake versus saline-injected GED mice, 2 hours after treatment” value is “consumed significantly more food”. For the same compound, the “food intake versus saline-injected GED mice, 1 hour after treatment” value in the assay on GED mice (setting [5]) is on record as “consumed significantly more food”.
